Values joined by “and” are separate entries in the source; they are usually repeats but may differ in a detail not shown here. Identical values can stand only once.
Assays:
[1] = biological target: T1, Nav1.5-R1644C (Homo sapiens, UniProt Q14524, R1644C); experiment: MST binding of diC8-PIP2 to GFP-Nav1.5-R1644C in cell lysate; details: for affinity (Kd) of Nav1.5-R1644C relative to WT, fold lower: R1644C vs WT
T1 construct: expressed in transfected cells; host or cells: HEK293T
Protocol: (§1) The method utilizes cell lysates obtained from transfected/infected cells that are lysed and incubated with varying concentrations of a water-soluble analogue of PIP2 commercially available as diC8-PI(4,5)P2, in a 384 well plate. Other phosphoinositides such as diC8PI(4)P of diC8PI(5)P can also be utilized. After a brief incubation (10-30 mins) samples are loaded onto capillary chips purchased from the company Nanotemper. Samples are run on the Nanotemper Monolith instrument. This instrument is advertised to detect green fluorescent protein (GFP) tagged proteins, however we have also used TFP (teal FP) tagged proteins. The instrument provides a short infra-red laser pulse which produces a short thermal gradient. Protein that is interacting with the lipid migrates differently through this thermal gradient and its movement is evaluated by the fluorescence of the GFP/TFP tag on the protein. Based on the concentration of the dic8-phosphoinositide, this resolves into a sigmoidal relationship that delivers an apparent affinity (Kd) value. A test ligand can be added to this assay at a known concentration that is at or close to its Kd for the channel. A shift in the channel's affinity for PIP2 in this assay can help indicate whether this test compound is a good drug candidate for further biological experiments.
(§2) Results. Our studies were designed to evaluate PIP2-regulation for Nav1.5 channelopathies from multiple perspectives. Given that there is a lack of structural data to identify where, or how many PIP2 molecules bind to Nav1.5, we performed a docking simulation to identify putative PIP2 binding sites in the open, rat and human Nav1.5 cryoEM structures (PDB: 6UZ3 and 7DTC) (56-58). We observed four potential PIP2 binding sites at the boundary between the inner leaflet of the membrane and the cytoplasm with one at the interface between each voltage sensor and the channel body. In each case, we noted electrostatic and hydrogen bond interactions between the headgroup of PIP2 and multiple disease associated residues. […]

[2] = biological target: T2, GFP-PHPLCδ (PIP2 biosensor) (Homo sapiens, UniProt P51178); experiment: MST binding of diC8-PIP2 to GFP-tagged PHPLCδ1 (positive control)
T2 construct: the pleckstrin homology domain of phospholipase C delta (GFP-PHPLCδ), a PIP2 biosensor; expressed in transfected cells; host or cells: cell lysate
T2 sequence (P51178 21-130 limits assumed): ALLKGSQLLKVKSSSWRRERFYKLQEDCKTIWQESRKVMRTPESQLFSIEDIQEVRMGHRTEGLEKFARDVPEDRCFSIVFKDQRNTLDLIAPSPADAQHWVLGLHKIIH
Protocol: as §1
Results. […]

[3] = biological target: T3, WT-Nav1.5 (Homo sapiens, UniProt Q14524); experiment: Whole-cell patch-clamp ILATE of wild type Nav1.5 in HEK293T cells with CRY2-5POCRL; assay type: cell-based; details: diC8-PIP2 in pipette
T3 construct: expressed in transfected cells; host or cells: HEK293T
Protocol: This is opposed when by 200 μM diC8-PIP2 in the pipette. Comparisons are Students t-test, *** P<0.01, ****P0.001 for 4-6 cells per group.
as §2, with “residues. Among these, we elected to perform functional studies on Nav1.5-R1644C, an LQT3 mutant located between the S4 and S5 transmembrane segments of DIV. We expressed wild type Nav1.5 or Nav1.5-R1644C with Nav1β, CIBN-CAAX and CRY2-5POCRL in HEK293T cells and studied ILATE with and without optogenetic dephosphorylation of PIP2. In wild-type Nav1.5, ILATE was 0.25±0.1% of the peak (n=8) whereas in Nav1.5-R1664C, ILATE was 1.2±0.2% of peak (n=8, P<0.01, unpaired t-test comparison to WT).” for “residues.”

T1 sequence (Q14524 whole entry R1644C): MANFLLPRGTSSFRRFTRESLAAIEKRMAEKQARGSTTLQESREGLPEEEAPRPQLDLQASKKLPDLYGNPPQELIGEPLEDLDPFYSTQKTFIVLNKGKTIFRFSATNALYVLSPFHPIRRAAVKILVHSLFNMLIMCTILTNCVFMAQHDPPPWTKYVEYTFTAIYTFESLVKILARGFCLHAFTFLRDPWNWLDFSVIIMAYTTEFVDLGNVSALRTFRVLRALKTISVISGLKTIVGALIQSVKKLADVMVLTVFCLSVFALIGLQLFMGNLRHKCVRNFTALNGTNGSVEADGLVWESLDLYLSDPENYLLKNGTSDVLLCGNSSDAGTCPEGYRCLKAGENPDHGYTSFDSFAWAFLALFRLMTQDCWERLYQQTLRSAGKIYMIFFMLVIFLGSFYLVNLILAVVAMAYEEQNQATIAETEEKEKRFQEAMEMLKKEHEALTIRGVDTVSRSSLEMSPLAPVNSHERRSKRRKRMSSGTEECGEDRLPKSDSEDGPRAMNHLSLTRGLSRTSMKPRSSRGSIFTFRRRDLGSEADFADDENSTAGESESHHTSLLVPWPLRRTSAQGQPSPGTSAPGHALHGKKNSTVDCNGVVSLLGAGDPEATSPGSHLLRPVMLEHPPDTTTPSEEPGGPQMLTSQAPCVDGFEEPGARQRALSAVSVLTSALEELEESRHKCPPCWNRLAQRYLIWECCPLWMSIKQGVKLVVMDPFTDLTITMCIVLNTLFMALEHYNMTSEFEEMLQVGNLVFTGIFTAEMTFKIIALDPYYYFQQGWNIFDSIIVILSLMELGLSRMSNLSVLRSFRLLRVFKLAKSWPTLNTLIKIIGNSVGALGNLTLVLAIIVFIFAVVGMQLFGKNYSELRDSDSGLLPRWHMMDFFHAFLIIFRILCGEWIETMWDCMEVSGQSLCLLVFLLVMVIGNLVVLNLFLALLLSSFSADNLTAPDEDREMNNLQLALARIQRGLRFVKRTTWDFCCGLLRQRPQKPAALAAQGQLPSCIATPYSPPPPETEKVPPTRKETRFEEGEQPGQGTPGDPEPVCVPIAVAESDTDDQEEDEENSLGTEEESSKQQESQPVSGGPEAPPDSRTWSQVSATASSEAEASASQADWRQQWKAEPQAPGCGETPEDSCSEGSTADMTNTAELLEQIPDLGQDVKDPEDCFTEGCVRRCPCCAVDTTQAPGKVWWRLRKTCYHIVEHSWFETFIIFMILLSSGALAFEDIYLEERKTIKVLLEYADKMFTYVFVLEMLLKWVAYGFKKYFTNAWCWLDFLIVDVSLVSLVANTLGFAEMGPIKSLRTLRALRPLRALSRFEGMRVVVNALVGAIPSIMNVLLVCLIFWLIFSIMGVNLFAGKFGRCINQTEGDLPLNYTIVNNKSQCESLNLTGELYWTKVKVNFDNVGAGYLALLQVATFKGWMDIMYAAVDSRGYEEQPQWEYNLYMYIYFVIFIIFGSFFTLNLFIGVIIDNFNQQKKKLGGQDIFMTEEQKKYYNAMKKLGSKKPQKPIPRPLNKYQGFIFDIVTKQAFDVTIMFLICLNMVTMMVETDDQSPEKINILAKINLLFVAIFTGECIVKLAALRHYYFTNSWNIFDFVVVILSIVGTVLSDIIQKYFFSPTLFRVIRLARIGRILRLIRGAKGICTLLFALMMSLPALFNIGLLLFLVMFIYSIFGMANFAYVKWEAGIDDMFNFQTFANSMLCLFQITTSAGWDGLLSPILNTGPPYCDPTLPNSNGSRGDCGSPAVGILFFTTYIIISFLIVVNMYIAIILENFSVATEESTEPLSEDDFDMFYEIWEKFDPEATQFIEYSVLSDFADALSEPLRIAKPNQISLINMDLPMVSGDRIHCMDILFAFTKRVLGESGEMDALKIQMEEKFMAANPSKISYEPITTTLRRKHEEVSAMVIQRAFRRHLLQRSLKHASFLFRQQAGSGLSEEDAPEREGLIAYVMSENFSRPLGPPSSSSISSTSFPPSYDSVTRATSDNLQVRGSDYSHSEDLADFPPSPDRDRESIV
T3 sequence (Q14524 whole entry): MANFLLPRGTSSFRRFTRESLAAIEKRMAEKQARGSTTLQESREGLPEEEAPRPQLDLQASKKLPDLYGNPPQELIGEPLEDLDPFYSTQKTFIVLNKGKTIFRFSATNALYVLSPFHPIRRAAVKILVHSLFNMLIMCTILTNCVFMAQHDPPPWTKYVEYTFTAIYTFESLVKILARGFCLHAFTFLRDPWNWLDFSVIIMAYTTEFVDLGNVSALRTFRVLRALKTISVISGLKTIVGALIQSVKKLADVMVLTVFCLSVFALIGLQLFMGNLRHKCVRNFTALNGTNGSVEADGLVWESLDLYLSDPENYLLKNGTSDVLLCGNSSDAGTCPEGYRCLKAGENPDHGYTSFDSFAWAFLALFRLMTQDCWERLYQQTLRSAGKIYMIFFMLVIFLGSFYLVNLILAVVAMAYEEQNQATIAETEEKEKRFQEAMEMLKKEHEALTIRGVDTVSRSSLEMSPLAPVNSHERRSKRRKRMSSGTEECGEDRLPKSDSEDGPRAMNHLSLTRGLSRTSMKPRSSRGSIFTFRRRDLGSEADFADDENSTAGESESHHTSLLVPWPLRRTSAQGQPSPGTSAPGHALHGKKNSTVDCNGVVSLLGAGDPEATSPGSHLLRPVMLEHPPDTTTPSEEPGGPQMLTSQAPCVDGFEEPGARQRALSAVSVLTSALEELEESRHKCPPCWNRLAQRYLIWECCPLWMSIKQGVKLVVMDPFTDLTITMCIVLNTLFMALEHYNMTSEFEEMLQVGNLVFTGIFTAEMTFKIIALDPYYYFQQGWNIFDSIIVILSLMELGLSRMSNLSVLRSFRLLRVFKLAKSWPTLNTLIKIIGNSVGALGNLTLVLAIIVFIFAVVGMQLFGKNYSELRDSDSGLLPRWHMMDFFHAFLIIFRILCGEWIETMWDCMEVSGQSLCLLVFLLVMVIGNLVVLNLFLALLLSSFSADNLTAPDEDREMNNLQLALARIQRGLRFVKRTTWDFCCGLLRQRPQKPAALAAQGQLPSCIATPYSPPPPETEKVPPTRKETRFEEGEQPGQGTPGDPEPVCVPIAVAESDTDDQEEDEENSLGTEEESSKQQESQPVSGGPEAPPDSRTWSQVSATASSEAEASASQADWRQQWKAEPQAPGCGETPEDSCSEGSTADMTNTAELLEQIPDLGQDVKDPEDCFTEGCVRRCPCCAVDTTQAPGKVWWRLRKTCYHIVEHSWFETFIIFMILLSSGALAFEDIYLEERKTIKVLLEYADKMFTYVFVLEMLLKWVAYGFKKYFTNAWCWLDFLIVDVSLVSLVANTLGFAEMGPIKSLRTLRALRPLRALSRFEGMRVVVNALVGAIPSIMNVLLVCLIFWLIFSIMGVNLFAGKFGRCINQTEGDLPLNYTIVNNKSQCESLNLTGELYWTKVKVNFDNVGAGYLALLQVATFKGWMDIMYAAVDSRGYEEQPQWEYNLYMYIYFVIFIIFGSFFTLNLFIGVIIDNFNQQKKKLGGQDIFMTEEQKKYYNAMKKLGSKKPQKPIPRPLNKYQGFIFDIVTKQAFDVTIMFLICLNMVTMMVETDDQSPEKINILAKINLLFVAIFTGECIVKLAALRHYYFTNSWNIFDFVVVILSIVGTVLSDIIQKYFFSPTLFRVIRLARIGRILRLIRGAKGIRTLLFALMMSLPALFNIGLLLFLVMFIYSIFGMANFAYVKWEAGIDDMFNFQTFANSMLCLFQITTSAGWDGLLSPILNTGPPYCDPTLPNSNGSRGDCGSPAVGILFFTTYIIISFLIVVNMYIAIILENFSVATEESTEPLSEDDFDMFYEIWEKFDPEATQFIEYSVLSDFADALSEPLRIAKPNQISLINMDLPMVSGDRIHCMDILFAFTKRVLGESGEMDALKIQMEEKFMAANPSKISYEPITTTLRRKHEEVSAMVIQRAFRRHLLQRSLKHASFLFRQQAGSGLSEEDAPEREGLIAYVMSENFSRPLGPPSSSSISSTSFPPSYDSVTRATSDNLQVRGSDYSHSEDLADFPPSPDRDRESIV

For CCCCCCCC(=O)OC[C@H](COP(=O)(O)O[C@@H]1[C@H](O)[C@H](O)[C@@H](OP(=O)(O)O)[C@H](OP(=O)(O)O)[C@H]1O)OC(=O)CCCCCCC [diC8-PIP2], the Kd ([1]; Kd of diC8-PIP2 for Nav1.5-R1644C, GFP-Nav1.5-R1644C, HEK293T lysate) was 345 nM and 445 nM, the “affinity (Kd) of Nav1.5-R1644C relative to WT, fold lower” value [1] was ~8 fold and ~10 fold and the “affinity (Kd) of Nav1.5-R1644C relative to WT, fold lower” value ([1]; listed as diC8PI(4,5)P2) was “almost ten-fold lower”. For the same compound, the Kd [2] was 130 nM and the “effect on ILATE increase when PIP2 is dephosphorylated” value [3] was “opposed”.

— US20240358727A1, “MICROSCALE THERMOPHORESIS TO EVALUATE CHANNEL LIPID INTERACTIONS AND METHODS OF TREATING NAV CHANNELS RELATED DISEASES” (Northeastern University, priority 2023, published 2024)
